Measured values: the NIST ThermoML archive (doi:10.1016/j.fluid.2008.09.004)
± gives the expanded uncertainty stated by the source.

How the values were obtained:
[1] = excess molar enthalpy (molar enthalpy of mixing); xn = mol fraction of the nth substance listed; conditions: 303.15 K, 101 kPa, Liquid, Calvet calorimetry
[2] = xn = mol fraction of the nth substance listed; conditions: 101 kPa, Liquid, Vibrating tube method

CCCCn1cc[n+](C)c1.O=S(=O)([O-])C(F)(F)F [1-butyl-3-methylimidazolium trifluoromethanesulfonate] + CCO
[1]
Conditions	excess molar enthalpy [kJ/mol]
x1 = 0.0987	0.963 ± 0.077
x1 = 0.2029	1.52 ± 0.12
x1 = 0.2948	1.74 ± 0.14
x1 = 0.4016	1.77 ± 0.14
x1 = 0.4928	1.7 ± 0.14
x1 = 0.5952	1.48 ± 0.12
x1 = 0.6832	1.22 ± 0.098
x1 = 0.8026	0.833 ± 0.067
x1 = 0.8759	0.539 ± 0.043

mass density [kg/m3], [2]
Conditions	293.15 K	298.15 K	303.15 K	308.15 K	313.15 K	318.15 K
x1 = 0.0522	881 ± 0.4	876.7 ± 0.4	872.5 ± 0.4	868.2 ± 0.4	863.9 ± 0.4	859.5 ± 0.4
x1 = 0.0982	944.5 ± 0.3	940.2 ± 0.3	935.9 ± 0.3	931.7 ± 0.3	927.4 ± 0.3	923 ± 0.3
x1 = 0.1976	1041.9 ± 0.3	1037.7 ± 0.3	1033.4 ± 0.3	1029.2 ± 0.3	1025 ± 0.3	1020.7 ± 0.3
x1 = 0.2999	1111.4 ± 0.2	1107.2 ± 0.2	1103 ± 0.2	1098.8 ± 0.2	1094.7 ± 0.2	1090.5 ± 0.3
x1 = 0.3996	1160.3 ± 0.2	1156.1 ± 0.2	1152 ± 0.2	1147.9 ± 0.2	1143.8 ± 0.2	1139.6 ± 0.2
x1 = 0.4973	1196.9 ± 0.2	1192.8 ± 0.2	1188.7 ± 0.2	1184.7 ± 0.2	1180.6 ± 0.2	1176.5 ± 0.2
x1 = 0.5923	1225.3 ± 0.2	1221.2 ± 0.2	1217.2 ± 0.2	1213.1 ± 0.2	1209.1 ± 0.2	–
x1 = 0.6898	1249.1 ± 0.2	1245 ± 0.2	1241 ± 0.2	1237 ± 0.2	1233 ± 0.2	–
x1 = 0.7868	1268.5 ± 0.2	1264.5 ± 0.2	1260.5 ± 0.2	1256.5 ± 0.2	1252.5 ± 0.2	–
x1 = 0.8756	1283.7 ± 0.2	1279.7 ± 0.2	1275.7 ± 0.2	1271.7 ± 0.2	1267.7 ± 0.2	–
x1 = 0.9283	1291.6 ± 0.3	1287.6 ± 0.3	1283.7 ± 0.2	1279.7 ± 0.2	1275.8 ± 0.2	–
